Results as given in patent publication US11179381B2, “Intranasal administration of physiologically active substances” (DUTCH RENEWABLE ENERGY B.V., priority 2017, dated 2021).

Key:
[1] = octanol/water partition coefficient; stated without a test; cited from earlier work
[2] = Blood folate after intranasal spray (Access Folate immunoassay); type: in vivo, human; settings: from average increases of Tables 3 and 4 (3.5 wt. % nicotinamide)
Experimental: Briefly, a serum specimen was treated to release folate from endogenous binding proteins. After neutralization of the reaction mixture, folate-binding protein, mouse antifolate-binding protein, folic acid-alkaline phosphatase conjugate, and goat antimouse capture antibody coupled to paramagnetic particles were added to the reaction vessel. Folate in the sample competes with the folic acid-alkaline phosphatase conjugate for binding sites on a limited amount of folate-binding protein. Resulting complexes bind to the solid phase via mouse antifolate binding protein. […] The instrument used is a Beckman Coulter DXI 800.

[3] = Blood erythropoietin after intranasal rh-Erythropoietin (Access EPO immunoassay); type: in vivo, human; settings: from average increases of Tables 9 and 10 (5 wt. % nicotinamide)
Experimental: As a control a composition comprising 400 μg rh-Erythropoietin was used.
An immunoassay (Access erythropoietin (EPO), Beckman Coultier Inc.) was used to quantify the erythropoietin. Briefly, testing was performed on the Beckman Coulter DxI 800 (Beckman Coulter Inc.). […] The light production is directly proportional to the concentration of EPO in the sample. The amount of analyte in the sample was determined from a stored, multi-point calibration curve. (Instruction manual: Beckman Coulter Access EPO, Beckman Coulter Access Immunoassay Systems, Beckman Coulter, Inc, Fullerton Calif. 2009).

[4] = Blood vitamin B12 after intranasal hydroxocobalmin, 75 μg dose (Access Vitamin B12 assay); settings: from average increases of Tables 7 and 8 (75 μg dose, 5 wt. % nicotinamide)
[5] = Blood vitamin B12 after intranasal hydroxocobalmin, 500 μg dose (Access Vitamin B12 assay); settings: from average increases of Tables 5 and 6 (500 μg dose, 5 wt. % nicotinamide)

Compound	log P [1]	Increase in absorption relative to control (absence of nicotinamide) [2]	Increase in absorption relative to control (absence of nicotinamide) [3]	Increase in absorption relative to control (absence of nicotinamide) [4]	Increase in absorption relative to control (absence of nicotinamide) [5]
Nc1nc2ncc(CNc3ccc(C(=O)N[C@@H](CCC(=O)O)C(=O)O)cc3)nc2c(=O)[nH]1 [Folic acid, folic acid]	−0.02	184%			
Erythropoietin: rh-Erythropoietin, molecular weight 34000	0		300%		
C/C1=C2/[N-][C@H]([C@H](CC(N)=O)[C@@]2(C)CCC(=O)NC[C@@H](C)OP(=O)([O-])O[C@H]2[C@@H](O)[C@@H](n3cnc4cc(C)c(C)cc43)O[C@@H]2CO)[C@]2(C)N=C(/C(C)=C3N=C(/C=C4N=C1[C@@H](CCC(N)=O)C\4(C)C)[C@@H](CCC(N)=O)[C@]\3(C)CC(N)=O)[C@@H](CCC(N)=O)[C@]2(C)CC(N)=O.[Co+3].[OH-] [Hydroxocobalamin, hydroxocobalamin]	−0.9			192%	203%
